This passage reports Kd results from paper PMC6172251, “Two Engineered OBPs with opposite temperature-dependent affinities towards 1-aminoanthracene” (Scientific Reports, 2018).

Test [1] has as its target T1, OBP::GQ20::SP-DS3, engineered from OBP-I (Sus scrofa, UniProt P81245).
T1 construct: fusion of OBP-I with a linker of 20 glycine-glutamine repeats (GQ20) and the anchor peptide SP-DS3 ([…]); His-tag at N-terminal
T1 sequence (P81245 1-157): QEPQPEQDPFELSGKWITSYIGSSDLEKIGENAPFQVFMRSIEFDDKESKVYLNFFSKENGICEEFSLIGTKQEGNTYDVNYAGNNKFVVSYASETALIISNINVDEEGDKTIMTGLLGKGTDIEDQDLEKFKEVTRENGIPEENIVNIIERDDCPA
The experiment in a line: direct fluorescence titration with 1-AMA (ex […] nm, em […] nm), […] °C; Kd […] at […] °C. It is filed as binding.

Test [2] has as its target T2, truncated OBP (tOBP), engineered from OBP-I (Sus scrofa, UniProt P81245, F44A/F66A).
T2 construct: OBP-I with deletion of the first 16 residues of the N-terminal and F44A and F66A; His-tag at N-terminal
T2 sequence (P81245 17-157 F44A/F66A): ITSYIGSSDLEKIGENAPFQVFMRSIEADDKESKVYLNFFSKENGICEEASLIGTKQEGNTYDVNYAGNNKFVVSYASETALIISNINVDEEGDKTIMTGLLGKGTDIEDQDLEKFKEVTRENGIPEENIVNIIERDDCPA
The description is as above. It counts as binding.

Regarding `Nc1cccc2cc3ccccc3cc12` [1-AMA, 1-aminoanthracene], the figures for the Kd in test [1] and in test [2] were 580 nM and 450 nM, respectively.
